26 compounds from US20150118311A1, “Highly Penetrative Nanocarriers for Treatment of CNS Disease” (priority 2012, published 2015) can be followed below.

pIC50: −log10 of the molar value. Like-named read-outs stand apart in the source and are kept apart here.

The test system of one assay is GS5 cells. Briefly: GS5 cell proliferation/viability (MTT, AlamarBlue). Type of assay: cell-based, human. For orientation: Alamar Blue is a resazurin reagent that responds to reducing activity.
In another assay the test system is U87MG. Nature of the assay: cells. Conditions: Homo sapiens, U-87 MG, read-out: IC50, growth of U87MG in vitro.
The next assay has as its system U87MG-derived xenografts. Briefly: Survival of nude rats with intracranial U87MG xenografts after CED. Type of assay: in vivo. As to conditions: U87MG xenograft.
The next assay deals with GS5-derived tumors. Nature of the assay: Survival of nude rats with intracranial GS5 (BCSC) xenografts after CED. Conditions: BCSC xenograft tumors in the rat, FIG. 1C. Type of assay: in vivo.
The subject of another assay is CD133+ cell population. Briefly: Flow cytometry of CD133+ cell population in BCSC culture. Type of assay: cell-based, human. Conditions: 100 nM drug, 3 days after plating, DI treated culture.
For a further assay, the system named is BCSCs. Type of assay: cell-based, human.
For a further assay, the system named is BCSC line PS11. Briefly: Flow cytometry of CD133+ population in PS11. As to conditions: 1 μM.
In the next assay the test system is BCSC sphere formation. Briefly: BCSC sphere formation.
[1] abbreviates: Homo sapiens, 72 h, GS5 cells, three days after treatment, read-out: IC50 of candidate drugs on GS5 cells.
The mark [2] stands for this setting: read-out: IC50 of candidate drugs on GS5 cells.
The mark [3] stands for this setting: GS5 cells, three days after treatment, read-out: IC50 of candidate drugs on GS5 cells.
Where [4] appears, read: Homo sapiens, 72 h, read-out: IC50 of candidate drugs on GS5 cells.

Turning to `N=C(N)NCC(=O)O` [Glycocyamine], the pIC50 in the assay with GS5 cells (setting [1]) was 4.47.

With `Cc1ccc2ccc3ccc(C)nc3c2n1` [Neocuproine], the pIC50 in the assay with GS5 cells (setting [1]) was 6.70.

Consider `C[C@@H]1O[C@@H](O[C@@H]2C=C3CC[C@@H]4[C@H](CC[C@]5(C)[C@@H](c6ccc(=O)oc6)CC[C@]45O)[C@@]3(C)CC2)[C@H](O)[C@H](O)[C@H]1O` [Proscillaridin A], for which the pIC50 in the assay with GS5 cells (setting [2]) is 7.00.

`CC(=O)O[C@H]1C(=O)[C@@]2(C)[C@H]([C@H](OC(=O)c3ccccc3)[C@]3(O)C[C@H](OC(=O)[C@H](O)[C@@H](NC(=O)c4ccccc4)c4ccccc4)C(C)=C1C3(C)C)[C@]1(OC(C)=O)CO[C@@H]1C[C@@H]2O` [paclitaxel]: in the assay on U87MG, the pIC50 is 6.77. In the assay on U87MG-derived xenografts (CED), the “survival benefit compared to no treatment” value is listed as “failed to show a survival benefit”. Also, the median survival in the assay on U87MG-derived xenografts (single CED infusion 7 days after inoculation) turned out to be 30 days.

On to `Nc1ccn([C@@H]2O[C@H](CO)[C@@H](O)[C@@H]2O)c(=O)n1` [Cytarabine], for which the pIC50 with GS5 cells (setting [1]) is 6.10.

On to `CCN1/C(=C/C=C/C=C/c2sc3ccccc3[n+]2CC)Sc2ccccc21` [Dithiazanine iodide], for which the median survival with GS5-derived tumors came to 177 days. Moreover, the pIC50 was 6.52 in the assay with GS5 cells (setting [1]) and 7.10 in the assay on GS5 cells (Homo sapiens, GS5, running text, read-out: IC50, inhibition of GS5 proliferation). In the assay with CD133+ cell population, the “decrease of CD133+ cell population” value came out at 57%.

Consider `Nc1nc(Cl)nc2c1ncn2[C@H]1C[C@H](O)[C@@H](CO)O1` [Cladribine], for which the pIC50 in the assay on GS5 cells (setting [1]) is 5.47.

Regarding `CC[C@H]1CN2CCc3cc(OC)c(OC)cc3[C@@H]2C[C@@H]1C[C@H]1NCCc2cc(OC)c(OC)cc21` [Emetine], the pIC50 in the assay with GS5 cells (setting [1]) was 6.52.

Consider `CC1=C(C(=O)O)N2C(=O)[C@@H](NC(=O)[C@H](N)C3=CCC=CC3)[C@H]2SC1` [Cephradine], for which, in the assay with GS5 cells (setting [1]), the pIC50 was 4.41.

As to `CN(C)CCC(c1ccc(Cl)cc1)c1ccccn1` (stereo not shown) [Chlorpheniramine], the pIC50 in the assay with GS5 cells (setting [1]) is 4.39.

Take `C[C@H]1C[C@H]2[C@@H]3CCC4=CC(=O)C=C[C@]4(C)[C@@]3(F)[C@@H](O)C[C@]2(C)[C@@]1(O)C(=O)CO` [Betamethasone]: the pIC50 with GS5 cells (setting [1]) was 4.59.

`COc1ccc(C[C@H]2NC[C@H](O)[C@H]2OC(C)=O)cc1` [Anisomycin]: the “performance on in vitro assays against BCSCs” value in the assay with BCSCs is on record as “performed well”. The pIC50 with GS5 cells (setting [2]) was 6.52.

Take `CCN(CC)CCNc1ccc(CO)c2sc3ccccc3c(=O)c12` [Hycanthone]: the pIC50 in the assay with GS5 cells (setting [1]) is 5.25.

Consider `CC1=C2N=C(C=C3N=C(C(C)=C4[N-]C(C(CC(N)=O)C4(C)CCC(=O)NCC(C)OP(=O)([O-])OC4C(CO)OC(n5cnc6cc(C)c(C)cc65)C4O)C4(C)N=C1C(CCC(N)=O)C4(C)CC(N)=O)C(CCC(N)=O)C3(C)C)C(CCC(N)=O)C2(C)CC(N)=O.Cl.[Co+3].[OH-]` (stereo not shown) [Hydroxocobalamin hydrochloride], for which the pIC50 in the assay with GS5 cells (setting [2]) is 4.49.

For the compound `CCC(=O)[O-].CCC(=O)[O-].[Ca+2]` [Calcium propionate], the pIC50 in the assay with GS5 cells (setting [2]) was 4.53.

Take `Nc1nc2nc[nH]c2c(=S)[nH]1` [Thioguanine]: the pIC50 in the assay on GS5 cells (setting [1]) is 5.34.

As to `CCCCCCCCCCCCCCCCOP(=O)([O-])OCC[N+](C)(C)C` [Miltefosine], the pIC50 with GS5 cells (setting [1]) is 4.56.

For `S=C(S)N1CCCC1` [Ammonium pyrrolidinedithiocarbamate], the pIC50 in the assay on GS5 cells (setting [3]) was 5.48.

Turning to `CC(C)C[C@H]1C(=O)N2CCC[C@H]2[C@]2(O)O[C@](NC(=O)[C@@H]3C=C4c5cccc6[nH]c(Br)c(c56)C[C@H]4N(C)C3)(C(C)C)C(=O)N12` [Bromocriptine], the pIC50 with GS5 cells (setting [4]) was 5.04.

As for `COc1ccc2c(c1)[nH]c1c(C)nccc12` [Harmine], the pIC50 in the assay with GS5 cells (setting [4]) was 4.71.

`CCN(CC)CCCC(C)Nc1c2ccc(Cl)cc2nc2ccc(OC)cc12` (stereo not shown) [Quinacrine]: in the assay on GS5 cells (setting [1]), the pIC50 was 5.57.

As for `Sc1ncnc2nc[nH]c12` [6-Mercaptopurine monohydrate], the pIC50 in the assay with GS5 cells (setting [4]) is 5.11.

In the case of `O=S(=O)([O-])[O-].[Fe+2]` [Iron(II) sulfate heptahydrate], the pIC50 with GS5 cells (setting [2]) was 4.49.

For the compound Acriflavine hydrochloride, in the assay with GS5 cells (setting [3]), the pIC50 was 5.52.

`C[C@H]1O[C@@H](O[C@H]2[C@@H](O)C[C@H](O[C@H]3[C@@H](O)C[C@H](O[C@H]4CC[C@@]5(C)[C@H](CC[C@@H]6[C@@H]5C[C@@H](O)[C@]5(C)[C@@H](C7=CC(=O)OC7)CC[C@]65O)C4)O[C@@H]3C)O[C@@H]2C)C[C@H](O)[C@@H]1O` [Digoxin]: in the assay with BCSC line PS11, the “effect on CD133+ population” value was “decreased the CD133+ population”. For the same compound, the “effect on BCSC sphere formation” value in the assay with BCSC sphere formation (1 μM) was “inhibited BCSC sphere formation”. Moreover, the “effect on BCSC sphere formation” value in the assay on BCSC sphere formation (5 μM) is reported as “inhibited BCSC sphere formation”. For the same compound, in the assay with BCSCs, the “effect on BCSC proliferation” value is on record as “inhibited BCSC proliferation” and the “performance on in vitro assays against BCSCs” value is “performed well”. Moreover, in the assay with GS5 cells (setting [4]), the pIC50 was 6.52.

As for `CN1CCC(Nc2ncc3ncnc(Nc4ccc(F)c(Cl)c4)c3n2)CC1` [Falnidamol], the pIC50 with GS5 cells (setting [4]) was 4.66.
